Experimental data published in patent US20180099931A1 (AbbVie S.à.r.l., priority 2016, published 2018).
pEC50: −log10 of the molar value. Like-named read-outs stand apart in the source and are kept apart here.

Biological target: T1, F508delCFTR (Homo sapiens, UniProt P13569, DEL508-508)
T1 construct: expressed in transfected cells; host or cells: CFBE41o- human lung-derived epithelial cells (CFBE4lo-F508delCFTR-HRP), doxycycline-inducible
Assay: Cell Surface Expression-Horse Radish Peroxidase (CSE-HRP) Assay;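 on Maximum % activity (with co-corrector): co-corrector and positive control are both the same reference corrector at 2 µM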;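 on Maximum % activity (without co-corrector): percent of the 2 µM on-plate positive control corrector response above DMSO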
Type: cell-based
Conditions: for Emax: read-out: Maximum % activity (without co-corrector)
Protocol: Cell Surface Expression-Horse Radish Peroxidase (CSE-HRP) Assay;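 on Maximum % activity (with co-corrector): co-corrector and positive control are both the same reference corrector at 2 µM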;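 on Maximum % activity (without co-corrector): percent of the 2 µM on-plate positive control corrector response above DMSO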
The development was achieved by expressing the F508delCFTR mutation along with a horseradish peroxidase (HRP) in the fourth exofacial loop, and then measuring the HRP activity using luminescence readout from these cells, CFBE4lo-F508delCFTR-HRP, that were incubated overnight with the test corrector compounds, either without or with the co-corrector. […] The test compounds were then added either without or with a co-corrector at the required concentrations and further incubated for 18-24 hours at 33° C. The highest concentration tested was 20 μM with an 8-point concentration response curve using a 3-fold dilution in both the test compound without or with the co-corrector. Three replicate plates were run to determine one EC50. All plates contained negative controls (dimethyl sulfoxide, DMSO) and positive control (2 μM of 3-[(2R,4R)-4-({[1-(2,2-difluoro-1,3-benzodioxol-5-yl)cyclopropyl]carbonyl}amino)-7-methoxy-3,4-dihydro-2H-chromen-2-yl]benzoic acid) as well as on-plate concentration response of the positive control. […] The raw counts from the experiment were analyzed using Accelrys® Assay Explorer v3.3.
1−[3*SDPositive Control+3*SDNegative Control/Absolute(MeanPositive Control−MeanNegative Control)]
wherein “SD” is standard deviation.
The % activity measured at each of the 8 test concentrations of the test compound added either without or with a co-corrector (2 μM of 3-[(2R,4R)-4-({[1-(2,2-difluoro-1,3-benzodioxol-5-yl)cyclopropyl]carbonyl}amino)-7-methoxy-3,4-dihydro-2H-chromen-2-yl]benzoic acid) was normalized to the on-plate positive control using the following formulae:
% activity(Test compound without co-corrector)=[(test compound without co-corrector response−DMSO response)/(positive control response−DMSO response)]*100
% activity(Test compound with co-corrector)=[(test compound with co-corrector response−DMSO response)/(positive control response−DMSO response)]*100
The maximum % activity achieved for the test compound either without or with a co-corrector at any tested concentration is presented in Table 4 along with the respective EC50's calculated using the following general sigmoidal curve with variable Hill slope equation (described as Model 42 in the Accelrys® Assay Explorer v3.3 software):
General sigmoidal curve with concentration, response, top, bottom, EC50 and Hill slope. This model describes a sigmoidal curve with an adjustable baseline, a. The equation can be used to fit curves where response is either increasing or decreasing with respect to the independent variable, “x”.
“x” is a concentration of drug under test. “y” is the response. “a” is the maximum response, and “d” is the minimum response “c” is the inflection point (EC50) for the curve. That is, “y” is halfway between the lower and upper asymptotes when x=c. “b” is the slope-factor or Hill coefficient. The sign of b is positive when the response increases with increasing dose and is negative when the response decreases with increasing dose (inhibition).

[1] = CSE-HRP, test compound without co-corrector, read-out: EC50 (without co-corrector)
[2] = CSE-HRP, with co-corrector (2 μM of 3-[(2R,4R)-4-({[1-(2,2-difluoro-1,3-benzodioxol-5-yl)cyclopropyl]carbonyl}amino)-7-methoxy-3,4-dihydro-2H-chromen-2-yl]benzoic acid), read-out: EC50 (with co-corrector)
[3] = CSE-HRP, with co-corrector (2 μM), maximum at any tested concentration, normalized to on-plate positive control
[4] = CSE-HRP, without co-corrector, maximum at any tested concentration, normalized to on-plate positive control
[5] = test compound without co-corrector, maximum at any tested concentration, normalized to on-plate positive control
[6] = test compound without co-corrector, read-out: EC50 (without co-corrector)
[7] = with co-corrector (2 μM of 3-[(2R,4R)-4-({[1-(2,2-difluoro-1,3-benzodioxol-5-yl)cyclopropyl]carbonyl}amino)-7-methoxy-3,4-dihydro-2H-chromen-2-yl]benzoic acid), maximum at any tested concentration, normalized to on-plate positive control
[8] = with co-corrector (2 μM of 3-[(2R,4R)-4-({[1-(2,2-difluoro-1,3-benzodioxol-5-yl)cyclopropyl]carbonyl}amino)-7-methoxy-3,4-dihydro-2H-chromen-2-yl]benzoic acid), read-out: EC50 (with co-corrector)
[9] = with co-corrector (2 μM), maximum at any tested concentration, normalized to on-plate positive control
[10] = without co-corrector, maximum at any tested concentration, normalized to on-plate positive control

T1 sequence (P13569 with tags, fused parts or gaps DEL508-508): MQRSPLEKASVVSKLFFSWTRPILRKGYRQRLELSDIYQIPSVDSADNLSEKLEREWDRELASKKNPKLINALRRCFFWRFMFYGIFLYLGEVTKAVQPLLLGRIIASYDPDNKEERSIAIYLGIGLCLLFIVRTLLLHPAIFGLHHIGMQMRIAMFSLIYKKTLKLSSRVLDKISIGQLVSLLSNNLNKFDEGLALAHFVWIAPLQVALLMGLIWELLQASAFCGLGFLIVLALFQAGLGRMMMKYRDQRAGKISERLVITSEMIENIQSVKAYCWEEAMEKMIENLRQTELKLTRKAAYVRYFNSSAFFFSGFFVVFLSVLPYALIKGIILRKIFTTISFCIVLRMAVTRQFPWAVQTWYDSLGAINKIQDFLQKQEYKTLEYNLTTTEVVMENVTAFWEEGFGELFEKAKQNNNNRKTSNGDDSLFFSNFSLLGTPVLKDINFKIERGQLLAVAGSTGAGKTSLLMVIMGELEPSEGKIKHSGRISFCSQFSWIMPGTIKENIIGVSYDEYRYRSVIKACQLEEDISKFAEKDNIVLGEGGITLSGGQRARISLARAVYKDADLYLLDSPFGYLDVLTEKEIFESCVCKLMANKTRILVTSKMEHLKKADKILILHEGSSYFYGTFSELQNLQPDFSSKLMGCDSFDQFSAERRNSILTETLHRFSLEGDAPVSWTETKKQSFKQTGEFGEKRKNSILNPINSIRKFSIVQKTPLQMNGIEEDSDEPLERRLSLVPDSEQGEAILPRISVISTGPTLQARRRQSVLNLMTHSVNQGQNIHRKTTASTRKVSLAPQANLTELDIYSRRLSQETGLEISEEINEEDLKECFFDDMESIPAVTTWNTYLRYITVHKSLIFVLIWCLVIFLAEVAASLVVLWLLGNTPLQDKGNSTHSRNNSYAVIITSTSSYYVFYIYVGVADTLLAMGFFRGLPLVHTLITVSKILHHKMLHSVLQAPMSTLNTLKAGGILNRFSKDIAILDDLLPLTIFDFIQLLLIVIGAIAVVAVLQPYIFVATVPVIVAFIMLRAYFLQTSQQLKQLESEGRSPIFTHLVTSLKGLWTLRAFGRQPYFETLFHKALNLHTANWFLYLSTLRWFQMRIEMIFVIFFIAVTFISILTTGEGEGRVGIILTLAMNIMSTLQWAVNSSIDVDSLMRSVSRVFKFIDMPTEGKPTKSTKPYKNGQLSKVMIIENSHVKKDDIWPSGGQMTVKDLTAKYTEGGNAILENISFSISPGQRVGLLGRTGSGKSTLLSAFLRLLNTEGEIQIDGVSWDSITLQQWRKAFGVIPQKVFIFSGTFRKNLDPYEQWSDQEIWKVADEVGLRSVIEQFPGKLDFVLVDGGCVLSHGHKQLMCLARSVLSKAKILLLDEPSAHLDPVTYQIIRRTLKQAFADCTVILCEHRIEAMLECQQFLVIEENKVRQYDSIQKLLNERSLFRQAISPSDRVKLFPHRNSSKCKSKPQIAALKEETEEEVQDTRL

With COc1ccc(C(C)(C)C)cc1CN[C@H]1[C@H](C(C)(C)C)[C@@H](C(=O)O)N(C(=O)Cc2cc(F)ccc2F)[C@H]1c1ccccc1 [II-202] the pEC50 [1] was over 6.00, the pEC50 [2] was over 6.00 and the “Maximum % activity (with co-corrector)” value [3] was “+++ (≥350)”. It also gave an Emax [4] of over 200%.
In the case of COc1cccc(CN[C@@H]2[C@@H](C(C)(C)C)[C@H](C(=O)O)N(C(=O)C3CCCCC3)[C@@H]2c2ccccc2)c1 (racemic) [III-14], the Emax [5] was under 100%, the pEC50 [6] was under 5.00 and the “Maximum % activity (with co-corrector)” value [7] was “++ (≥150 and <350)”. It also gave a pEC50 [8] of 5.00 to 6.00.
For COc1nc(C(C)(C)C)ccc1CN[C@H]1[C@H](C(C)(C)C)[C@@H](C(=O)O)N(C(=O)C2Cc3ccccc3O2)[C@H]1c1ccccc1 (single isomer, unassigned) [Example I-181], the pEC50 [6] was over 6.00, the pEC50 [8] was over 6.00 and the “Maximum % activity (with co-corrector)” value [9] was “+++ (≥350)”. It also gave an Emax [10] of under 100%.
With COc1ccc2c(c1)[C@@](C)(C(=O)N1[C@H](C(=O)O)[C@@H](C(C)(C)C)[C@H](NCc3cc(C(C)(C)C)ccc3OC)[C@@H]1c1cccnc1OC)CC2 [II-569] the Emax [5] was under 100%, the pEC50 [6] was 5.00 to 6.00 and the “Maximum % activity (with co-corrector)” value [7] was “+++ (≥350)”. The pEC50 [8] was 5.00 to 6.00.
In the case of COc1ccc(C(C)(C)C)cc1CN[C@H]1[C@H](C(C)(C)OC)[C@@H](C(=O)O)N(C(=O)C2CCCCC2)[C@H]1c1ccccc1OC [II-294], the pEC50 [1] was 5.00 to 6.00, the pEC50 [2] was 5.00 to 6.00 and the “Maximum % activity (with co-corrector)” value [3] was “+++ (≥350)”. The Emax [4] was over 200%.
With COc1ccc(C23CC(C2)C3)cc1CN[C@H]1[C@H](C(C)(C)C)[C@@H](C(=O)O)N(C(=O)OC(C)C)[C@H]1c1cccnc1N(C)C [Example 64, (2S,3S,4S,5S)-4-({[5-(bicyclo[1.1.1]pentan-1-yl)-2-methoxyphenyl]methyl}amino)-3-tert-butyl-5-[2-(dimethylamino)pyridin-3-yl]-1-{[(propan-2-yl)oxy]carbonyl}pyrrolidine-2-carboxylic acid] the pEC50 [6] was 5.00 to 6.00, the pEC50 [8] was 5.00 to 6.00 and the “Maximum % activity (with co-corrector)” value [9] was “+++ (≥350)”. The Emax [10] was over 200%.
In the case of COc1ncc(C2CCC2)cc1CN[C@H]1[C@H](C(C)(C)C)[C@@H](C(=O)O)N(C(=O)C2C3CCCC32)[C@H]1c1cccnc1OC (some centres unmarked) [Example I-243], the pEC50 [6] was 5.00 to 6.00, the pEC50 [8] was 5.00 to 6.00 and the “Maximum % activity (with co-corrector)” value [9] was “+++ (≥350)”. The Emax [10] was 100 to 200%.
With COc1ccc(-c2ccc(C)nc2)cc1CN[C@H]1[C@H](C(C)(C)C)[C@@H](C(=O)O)N(C(=O)C2CCCCC2)[C@H]1c1ccccc1 [II-278] the pEC50 [1] was 5.00 to 6.00, the pEC50 [2] was 5.00 to 6.00 and the “Maximum % activity (with co-corrector)” value [3] was “+++ (≥350)”. The Emax [4] was 100 to 200%.
In the case of COc1ncc(C2CCC2)cc1CN[C@H]1[C@H](C(C)(C)C)[C@@H](C(=O)O)N(C(=O)[C@@H]2CCCO2)[C@H]1c1ccccc1C(F)F [II-597], the Emax [5] was 100 to 200%, the pEC50 [6] was 5.00 to 6.00 and the “Maximum % activity (with co-corrector)” value [7] was “+++ (≥350)”. The pEC50 [8] was 5.00 to 6.00.
In the case of COc1ccc(C(C)(C)C)cc1CN[C@H]1[C@H](C(C)(C)C)[C@@H](C(=O)O)N(C(=O)c2onc3ccccc23)[C@H]1c1ccccc1 [II-231], the pEC50 [1] was over 6.00, the pEC50 [2] was over 6.00 and the “Maximum % activity (with co-corrector)” value [3] was “+++ (≥350)”. It also gave an Emax [4] of 100 to 200%.
With COc1ccc(C(C)(C)C)cc1CN[C@H]1[C@H](C(C)(C)C)[C@@H](C(=O)O)N(C(=O)C2CC3C=CC2C3)[C@H]1c1ccccc1 (some centres unmarked) [II-211] the pEC50 [1] was 5.00 to 6.00, the pEC50 [2] was 5.00 to 6.00 and the “Maximum % activity (with co-corrector)” value [3] was “+++ (≥350)”. The Emax [4] was over 200%.
COc1ncc(C(F)(F)F)cc1CN[C@@H]1[C@@H](C(C)(C)OC)[C@H](C(=O)O)N(C(=O)C2CCCCC2)[C@@H]1c1ccccc1 (racemic) [III-116] showed an Emax [5] of 100 to 200%, a pEC50 [6] of 5.00 to 6.00 and a pEC50 [8] of over 6.00. For the same compound, the “Maximum % activity (with co-corrector)” value [9] was “+++ (≥350)”.
In the case of COc1ccc(C(C)(C)C)cc1CN[C@H]1[C@H](C(C)(C)C)[C@@H](C(=O)O)N(C(=O)C2COc3ccccc3O2)[C@H]1c1cccnc1N(C)C (single isomer, unassigned) [II-472], the “Maximum % activity (without co-corrector)” value [5] was “+ (<100)”, the pEC50 [6] was 5.00 to 6.00 and the “Maximum % activity (with co-corrector)” value [7] was “++ (≥150 and <350)”. For the same compound, the pEC50 [8] was 5.00 to 6.00.
For CC(C)(C)[C@H]1[C@H](NCc2cc(F)cc(F)c2)[C@H](c2ccccc2)N(C(=O)C2CCCCC2)[C@@H]1C(=O)O [II-115], the pEC50 [1] was under 5.00, the pEC50 [2] was 5.00 to 6.00 and the “Maximum % activity (with co-corrector)” value [3] was “++ (≥150 and <350)”. It also gave an Emax [4] of under 100%.
COC(=O)[C@H](C)Cc1cnc(OC)c(CN[C@H]2[C@H](C(C)(C)C)[C@@H](C(=O)O)N(C(=O)C3CCCCC3)[C@H]2c2ccccc2)c1 [II-159] was tested, and the pEC50 [1] was 5.00 to 6.00, the pEC50 [2] was 5.00 to 6.00 and the “Maximum % activity (with co-corrector)” value [3] was “++ (≥150 and <350)”. For the same compound, the Emax [4] was under 100%.
CC(C)(C)c1ccc(CN[C@H]2[C@H](C(C)(C)C)[C@@H](C(=O)O)N(C(=O)[C@@H]3CCCC(F)(F)C3)[C@H]2c2ccccc2)c(Cl)n1 [Example I-247] was tested, and the pEC50 [6] was 5.00 to 6.00, the pEC50 [8] was 5.00 to 6.00 and the “Maximum % activity (with co-corrector)” value [9] was “+++ (≥350)”. The Emax [10] was under 100%.
With COc1cc(C(F)(F)F)ccc1CN[C@H]1[C@H](C(C)(C)C)[C@@H](C(=O)O)N(C(=O)[C@H](OC)c2ccccc2)[C@H]1c1cccnc1N(C)C (racemic) [II-48] the pEC50 [1] was 5.00 to 6.00, the pEC50 [2] was 5.00 to 6.00 and the “Maximum % activity (with co-corrector)” value [3] was “+++ (≥350)”. The Emax [4] was 100 to 200%.
In the case of CC(C)(C)[C@@H]1[C@@H](NCc2cc(Cl)ncc2O)[C@@H](c2ccccc2)N(C(=O)C2CCCCC2)[C@H]1C(=O)O (racemic) [III-73], the Emax [5] was under 100%, the pEC50 [6] was under 5.00 and the “Maximum % activity (with co-corrector)” value [7] was “++ (≥150 and <350)”. The pEC50 [8] was 5.00 to 6.00.
In the case of COc1ccc(C(C)(C)C)cc1CN[C@H]1[C@H](C(C)(C)C)[C@@H](C(=O)O)N(C(=O)[C@@H](C)c2ccccc2)[C@H]1c1cccnc1OC [II-539], the Emax [5] was under 100%, the pEC50 [6] was 5.00 to 6.00 and the “Maximum % activity (with co-corrector)” value [7] was “++ (≥150 and <350)”. It also gave a pEC50 [8] of 5.00 to 6.00.
With COc1ccc(C(C)(C)C)cc1CN[C@H]1[C@H](C(C)(C)C)[C@@H](C(=O)O)N(C(=O)C2CC2(C)C)[C@H]1c1ccccc1 (some centres unmarked) [II-309] the pEC50 [1] was 5.00 to 6.00, the pEC50 [2] was 5.00 to 6.00 and the “Maximum % activity (with co-corrector)” value [3] was “+++ (≥350)”. For the same compound, the Emax [4] was over 200%.
Compound COc1ccc(C(C)(C)C)cc1CN[C@H]1[C@H](C(C)(C)C)[C@@H](C(=O)O)N(C(=O)C2CCCCC2C)[C@H]1c1ccccc1 (some centres unmarked) [III-195] has an Emax [5] of over 200%, a pEC50 [6] of over 6.00 and a pEC50 [8] of over 6.00. For the same compound, the “Maximum % activity (with co-corrector)” value [9] was “+++ (≥350)”.
With COc1ccc(C(C)(C)C)cc1CN[C@H]1[C@H](C(C)(C)C)[C@@H](C(=O)O)N(C(=O)Cc2cccnc2)[C@H]1c1ccccc1 [II-184] the pEC50 [1] was 5.00 to 6.00, the pEC50 [2] was 5.00 to 6.00 and the “Maximum % activity (with co-corrector)” value [3] was “+++ (≥350)”. It also gave an Emax [4] of 100 to 200%.
In the case of COc1ccc(C(C)(C)C)cc1CN[C@H]1[C@H](C(C)(C)C)[C@@H](C(=O)O)N(C(=O)C2CCCCC2)[C@H]1c1ccccc1F [Example 24, (2S,3S,4S,5S)-3-tert-butyl-4-{[(5-tert-butyl-2-methoxyphenyl)methyl]amino}-1-(cyclohexanecarbonyl)-5-(2-fluorophenyl)pyrrolidine-2-carboxylic acid], the pEC50 [6] was over 6.00, the pEC50 [8] was over 6.00 and the “Maximum % activity (with co-corrector)” value [9] was “+++ (≥350)”. For the same compound, the Emax [10] was over 200%.
